# According to US20260062443A1 (ALEXION PHARMACEUTICALS, INC., priority 2022, published 2026):
# Target: T1, Human complement C1s enzyme (Homo sapiens, UniProt P09871)
# T1 sequence (P09871 438-688 limits assumed): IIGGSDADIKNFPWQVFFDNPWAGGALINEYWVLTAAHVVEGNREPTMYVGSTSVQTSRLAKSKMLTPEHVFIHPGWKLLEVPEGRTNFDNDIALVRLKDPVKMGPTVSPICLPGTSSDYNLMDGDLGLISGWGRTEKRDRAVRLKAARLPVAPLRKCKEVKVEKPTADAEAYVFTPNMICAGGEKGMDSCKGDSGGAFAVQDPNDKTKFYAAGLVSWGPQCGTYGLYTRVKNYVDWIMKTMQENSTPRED
# T1 sequence (P09871 16-437 partner limits assumed): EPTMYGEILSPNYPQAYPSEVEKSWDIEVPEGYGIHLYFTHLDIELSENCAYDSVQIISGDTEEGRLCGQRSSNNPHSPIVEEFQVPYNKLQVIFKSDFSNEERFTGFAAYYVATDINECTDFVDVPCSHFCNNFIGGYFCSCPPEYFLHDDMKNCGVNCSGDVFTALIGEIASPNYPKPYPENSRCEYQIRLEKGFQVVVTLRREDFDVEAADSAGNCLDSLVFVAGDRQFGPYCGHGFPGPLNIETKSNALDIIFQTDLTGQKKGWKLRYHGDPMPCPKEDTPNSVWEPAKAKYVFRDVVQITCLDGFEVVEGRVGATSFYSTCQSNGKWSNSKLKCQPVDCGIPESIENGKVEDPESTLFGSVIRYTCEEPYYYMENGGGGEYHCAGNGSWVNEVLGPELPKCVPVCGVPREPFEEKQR
# Experiment: Human C1s enzyme assay
# Format: biochemical
# Conditions: human complement C1s enzyme 1.16 nM, substrate Z-L-Lys-SBzl 100 μM, 5 min preincubation; read-out: IC50 (Stars), C1s Inhibiting Activity
# Outline: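 Serum-purified human C1s (1.16 nM final) preincubated 5 min at room temperature with compound in 50 mM Tris, 1 M NaCl, pH 7.5. Z-L-Lys-SBzl and DTNB added at 100 μM each; A405 followed every 30 s for 30 min, and IC50 obtained by nonlinear regression of reaction rates.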
row,Compound,IC50
1,"CO[C@@H]1C[C@@H](C(=O)N[C@H](C)c2cc3cnccc3[nH]2)N(C(=O)CNC(=O)c2ccc3c(c2)-c2ccccc2C3(F)F)C1 [Compound 71, (2S,4R)-N-((R)-1-(1H-pyrrolo[3,2-c]pyridin-2-yl)ethyl)-1-((9,9-difluoro-9H-fluorene-3-carbonyl)glycyl)-4-methoxypyrrolidine-2-carboxamide]",< 100 nM
2,"C[C@@H](NC(=O)[C@@H]1C[C@]2(C)C[C@@H]2N1C(=O)CNC(=O)c1ccc2c(c1)-c1ccccc1C2(F)F)c1cc2cnccc2[nH]1 [Compound 76, (1S,3S,5S)-N-((R)-1-(1H-pyrrolo[3,2-c]pyridin-2-yl)ethyl)-2-((9,9-difluoro-9H-fluorene-3-carbonyl)glycyl)-5-methyl-2-azabicyclo[3.1.0]hexane-3-carboxamide]",> 1000 nM
3,"C[C@@H](NC(=O)[C@@H]1C[C@@H](OC(F)F)CN1C(=O)CNC(=O)c1ccc2c(c1)-c1ccccc1C2(F)F)c1cc2cnccc2[nH]1 [Compound 77, (2S,4R)-N-((R)-1-(1H-pyrrolo[3,2-c]pyridin-2-yl)ethyl)-1-((9,9-difluoro-9H-fluorene-3-carbonyl)glycyl)-4-(difluoromethoxy)pyrrolidine-2-carboxamide]",< 100 nM
4,"C[C@@H](NC(=O)[C@@H]1CC2(CN1C(=O)CNC(=O)c1ccc(-c3ccccc3)cc1)OCCO2)c1cc2cnccc2[nH]1 [Compound 79, (S)-N-((R)-1-(1H-pyrrolo[3,2-c]pyridin-2-yl)ethyl)-7-(([1,1′-biphenyl]-4-carbonyl)glycyl)-1,4-dioxa-7-azaspiro[4.4]nonane-8-carboxamide]",100 to 1000 nM
5,Cc1cc(C(=O)NCC(=O)N2C[C@H](OC(F)F)C[C@H]2C(=O)N[C@H](C)c2cc3cnccc3[nH]2)ccc1Oc1ccccc1 [Compound 81],< 100 nM

# Now from value to molecule:
row,IC50,Compound
1,> 1000 nM,"C[C@@]12C[C@@H]1N(C(=O)CNC(=O)CCCOc1ccccc1)[C@H](C(=O)N[C@H]1CCn3c(CN)ccc31)C2 [Compound 69, (1S,3S,5S)-N-((S)-5-(aminomethyl)-2,3-dihydro-1H-pyrrolizin-1-yl)-5-methyl-2-((4-phenoxybutanoyl)glycyl)-2-azabicyclo[3.1.0]hexane-3-carboxamide]"
2,> 1000 nM,"COC[C@@]1(F)C[C@@H](C(=O)N[C@H](C)c2cc3cnccc3[nH]2)N(C(=O)CNC(=O)c2ccc(-c3ccc(F)cc3F)cc2)C1 [Compound 70, (2S,4R)-N-((R)-1-(1H-pyrrolo[3,2-c]pyridin-2-yl)ethyl)-1-((2′,4′-difluoro-[1,1′-biphenyl]-4-carbonyl)glycyl)-4-fluoro-4-(methoxymethyl)pyrrolidine-2-carboxamide]"
3,< 100 nM,"C[C@@H](NC(=O)[C@@H]1C[C@@H](S(C)(=O)=O)CN1C(=O)CNC(=O)c1ccc2c(c1)-c1ccccc1C2(F)F)c1cc2cnccc2[nH]1 [Compound 72, (2S,4R)-N-((R)-1-(1H-pyrrolo[3,2-c]pyridin-2-yl)ethyl)-1-((9,9-difluoro-9H-fluorene-3-carbonyl)glycyl)-4-(methylsulfonyl)pyrrolidine-2-carboxamide]"
4,< 100 nM,"COC[C@@]1(F)C[C@@H](C(=O)N[C@H](C)c2cc3cnccc3[nH]2)N(C(=O)CNC(=O)c2ccc3c(c2)-c2ccccc2C3(F)F)C1 [Compound 73, (2S,4R)-N-((R)-1-(1H-pyrrolo[3,2-c]pyridin-2-yl)ethyl)-1-((9,9-difluoro-9H-fluorene-3-carbonyl)glycyl)-4-fluoro-4-(methoxymethyl)pyrrolidine-2-carboxamide]"
5,100 to 1000 nM,"C[C@@]12C[C@@H]1N(C(=O)CNC(=O)CCCOc1ccccc1)[C@H](C(=O)N[C@@H]1CCn3c(CN)ccc31)C2 [Compound 78, (1S,3S,5S)-N-((R)-5-(aminomethyl)-2,3-dihydro-1H-pyrrolizin-1-yl)-5-methyl-2-((4-phenoxybutanoyl)glycyl)-2-azabicyclo[3.1.0]hexane-3-carboxamide]"
